{"source": "patent US4647563A", "about": "“Heterocyclic compounds” (Boehringer Ingelheim KG, priority 1978, dated 1987)", "key": {"Uterine relaxation": {"test_system": "Uterine relaxation", "experiment": "Uterine relaxation on anesthetized rats", "assay_type": "in vivo", "conditions": "Rattus norvegicus, iv, read-out: Uterine relaxation ED50 i.v.", "procedure": "(§1) Uterine relaxation was investigated on anesthetized rats. The intravenous ED50 of uterine relaxation was determined in ug/kg (50% of the tested animals react) and the (undesirable) increase in heart rate at the ED50 value was also determined. The comparison compound was fenoterol."}, "heart rate": {"test_system": "heart rate", "experiment": "Increase in heart rate at the ED50 of uterine relaxation on anesthetized rats", "assay_type": "in vivo", "procedure": "as §1"}, "[1]": {"test_system": "acetylcholine bronchospasm", "experiment": "Bronchospasmolysis: influence on acetylcholine bronchospasm in guinea pigs under urethane anaesthesia, body plethysmography", "assay_type": "in vivo", "conditions": "Cavia porcellus", "procedure": "1. Bronchospasmolysis The activity was tested on guinea pigs under urethane anaesthesia. Body plethysmography was used to determine the influence on acetylcholine bronchospasm after intravenous and oral application."}, "[2]": {"experiment": "Acute toxicity, LD50 in mice", "conditions": "mouse, in vivo"}, "[3]": {"conditions": "intravenous, read-out: Broncholysis ED50 intravenous"}, "[4]": {"conditions": "oral, read-out: Broncholysis ED50 oral"}, "[5]": {"conditions": "anesthetized rats, 50% of the tested animals react"}}, "note": "Read-outs that look alike come from different tables or passages of the source.", "data": [{"smiles": "CC(Cc1ccc(O)cc1)NCC(O)c1cc(O)cc(O)c1", "note": "(stereo not drawn) [Fenoterol, reference compound]", "values": [{"measurement": "ED50", "setting": "Uterine relaxation", "value": 0.45, "unit": "µg/kg"}, {"measurement": "Increase in heart rate in comparison with fenoterol", "setting": "heart rate; at the ED50 of uterine relaxation, fenoterol = 1, rats", "value": 1}, {"measurement": "Increase in heart rate (beats per min.)", "setting": "heart rate; at the ED50 of uterine relaxation, i.v., anesthetized rats", "value": 36, "unit": "beats per min."}]}, {"smiles": "CC(C)(CCn1cnc2ccccc21)NCC(O)c1ccc(O)cc1Cl", "note": "(stereo not drawn) [Table II, 21st compound]", "values": [{"measurement": "ED50", "setting": "[1]; [3]", "value": 7.6, "unit": "µg/kg"}, {"measurement": "ED50", "setting": "[1]; [4]", "value": 190, "unit": "µg/kg"}]}, {"smiles": "CC(C)(CCn1cnc2ccccc21)NCC(O)c1ccc(O)cc1", "note": "(stereo not drawn) [Table III 10th compound]", "values": [{"measurement": "ED50", "setting": "Uterine relaxation; [5]", "value": 0.82, "unit": "µg/kg"}, {"measurement": "Increase in heart rate in comparison with fenoterol", "setting": "heart rate; rat, in vivo", "value": "1/2"}, {"measurement": "Increase in heart rate (beats per min.)", "setting": "heart rate; rat, in vivo, iv", "value": 19, "unit": "beats per min."}]}, {"smiles": "CC(C)(CCn1cnc2ccccc21)NCC(O)c1ccc(O)c2c1OCC(=O)N2", "note": "(stereo not drawn) [Table III, 24th compound]", "values": [{"measurement": "ED50", "setting": "[1]; [4]", "value": 5.4, "unit": "µg/kg"}]}, {"smiles": "CC(C)(CCn1cnc2ccccc21)NCC(O)c1ccc(O)c(NC(N)=O)c1", "note": "(stereo not drawn) [Table III, 15th compound]", "values": [{"measurement": "ED50", "setting": "[1]; [3]", "value": 0.9, "unit": "µg/kg"}, {"measurement": "ED50", "setting": "[1]; [4]", "value": 14, "unit": "µg/kg"}]}, {"smiles": "CC(C)(CCn1cnc2ccccc21)NCC(O)c1ccc(O)cc1F", "note": "(stereo not drawn) [Example 6, 1-(2-Fluoro-4-hydroxy-phenyl)-2-[4-(1-benzimidazolyl)-2-methyl-2-butylamino]-ethanol]", "values": [{"measurement": "ED50", "setting": "[1]; [3]", "value": 3.6, "unit": "µg/kg"}, {"measurement": "ED50", "setting": "[1]; [4]", "value": 7, "unit": "µg/kg"}, {"measurement": "LD50", "setting": "[2]; iv", "value": 29000, "unit": "µg/kg"}, {"measurement": "LD50", "setting": "[2]; po", "value": 300000, "unit": "µg/kg"}]}, {"smiles": "Cc1c(C(O)CNC(C)(C)CCn2nnc3ccccc32)ccc(O)c1O", "note": "(stereo not drawn) [Table II, 15th compound]", "values": [{"measurement": "ED50", "setting": "Uterine relaxation; [5]", "value": 0.44, "unit": "µg/kg"}, {"measurement": "Increase in heart rate in comparison with fenoterol", "setting": "heart rate; rat, in vivo", "value": "2/3"}, {"measurement": "Increase in heart rate (beats per min.)", "setting": "heart rate; rat, in vivo, iv", "value": 23, "unit": "beats per min."}]}, {"smiles": "CC(=O)Nc1cc(C(O)CNC(C)(C)CCn2cnc3ccccc32)ccc1O", "note": "(stereo not drawn) [Table II, 16th compound]", "values": [{"measurement": "ED50", "setting": "[1]; [3]", "value": 1.8, "unit": "µg/kg"}, {"measurement": "ED50", "setting": "[1]; [4]", "value": 66, "unit": "µg/kg"}]}, {"smiles": "CC(C)(CCCn1cnc2ccccc21)NCC(O)c1ccc(O)c(NS(C)(=O)=O)c1", "note": "(stereo not drawn) [Table II, 24th compound]", "values": [{"measurement": "ED50", "setting": "Uterine relaxation; [5]", "value": 0.5, "unit": "µg/kg"}, {"measurement": "Increase in heart rate in comparison with fenoterol", "setting": "heart rate; rat, in vivo", "value": "1/2"}, {"measurement": "Increase in heart rate (beats per min.)", "setting": "heart rate; rat, in vivo, iv", "value": 18, "unit": "beats per min."}]}, {"smiles": "CC(C)(CCn1cnc2ccccc21)NCC(O)c1ccc(O)c(CO)c1", "note": "(stereo not drawn) [Table III, 16th compound]", "values": [{"measurement": "ED50", "setting": "[1]; [3]", "value": 1.2, "unit": "µg/kg"}, {"measurement": "ED50", "setting": "[1]; [4]", "value": 7.6, "unit": "µg/kg"}]}, {"smiles": "CC(C)(C)NCC(O)c1ccc(O)c(CO)c1", "note": "(stereo not drawn) [Salbutamol, reference compound]", "values": [{"measurement": "ED50", "setting": "[1]; [3]", "value": 9.2, "unit": "µg/kg"}, {"measurement": "ED50", "setting": "[1]; [4]", "value": 1000, "unit": "µg/kg"}]}]}
